# Source: publication PMC2934701 (The Journal of Biological Chemistry, 2010)
# Changes are numbered by the printed parent chain.
# What was measured:
# Test in all cases: Fluo-4 calcium assay, HEK293T + Galpha16gust44
# Type in all cases: cell-based
# hTAS2R16 (ssr3-hTAS2R16) [1] = target: T1, hTAS2R16 (ssr3-hTAS2R16) (Homo sapiens, UniProt Q9NYV7, W94Y)
# T1 sequence (Q9NYV7 1-291 W94Y): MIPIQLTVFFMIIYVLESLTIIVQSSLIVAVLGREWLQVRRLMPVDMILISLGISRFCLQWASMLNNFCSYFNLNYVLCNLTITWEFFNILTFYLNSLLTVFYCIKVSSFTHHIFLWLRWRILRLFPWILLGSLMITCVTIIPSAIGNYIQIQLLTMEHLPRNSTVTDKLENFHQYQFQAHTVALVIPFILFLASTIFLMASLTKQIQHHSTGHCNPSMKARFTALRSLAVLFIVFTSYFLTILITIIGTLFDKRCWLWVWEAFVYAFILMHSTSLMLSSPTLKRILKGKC
# hTAS2R16 (ssr3-hTAS2R16) [2] = target: T2, hTAS2R16 (ssr3-hTAS2R16) (Homo sapiens, UniProt Q9NYV7, E86Q)
# T2 sequence (Q9NYV7 1-291 E86Q): T1 sequence (Q9NYV7 1-291 W94Y) with E86Q, Y94W
# hTAS2R16 (ssr3-hTAS2R16) [3] = target: T3, hTAS2R16 (ssr3-hTAS2R16) (Homo sapiens, UniProt Q9NYV7, I243A)
# T3 sequence (Q9NYV7 1-291 I243A): T1 sequence (Q9NYV7 1-291 W94Y) with Y94W, I243A
# hTAS2R16 (ssr3-hTAS2R16) [4] = target: T4, hTAS2R16 (ssr3-hTAS2R16) (Homo sapiens, UniProt Q9NYV7, Q177A)
# T4 sequence (Q9NYV7 1-291 Q177A): T1 sequence (Q9NYV7 1-291 W94Y) with Y94W, Q177A
# hTAS2R16 (ssr3-hTAS2R16) [5] = target: T5, hTAS2R16 (ssr3-hTAS2R16) (Homo sapiens, UniProt Q9NYV7, F240L)
# T5 sequence (Q9NYV7 1-291 F240L): T1 sequence (Q9NYV7 1-291 W94Y) with Y94W, F240L
# hTAS2R16 (ssr3-hTAS2R16) [6] = target: T6, hTAS2R16 (ssr3-hTAS2R16) (Homo sapiens, UniProt Q9NYV7, I243L)
# T6 sequence (Q9NYV7 1-291 I243L): T1 sequence (Q9NYV7 1-291 W94Y) with Y94W, I243L
# hTAS2R16 (ssr3-hTAS2R16) [7] = target: T7, hTAS2R16 (ssr3-hTAS2R16) (Homo sapiens, UniProt Q9NYV7, Q177E)
# T7 sequence (Q9NYV7 1-291 Q177E): T1 sequence (Q9NYV7 1-291 W94Y) with Y94W, Q177E
# hTAS2R16 (ssr3-hTAS2R16) [8] = target: T8, hTAS2R16 (ssr3-hTAS2R16) (Homo sapiens, UniProt Q9NYV7)
# T8 sequence (Q9NYV7 1-291): T1 sequence (Q9NYV7 1-291 W94Y) with Y94W
smiles,measurement,setting,value
OCc1ccccc1O[C@@H]1O[C@H](CO)[C@@H](O)[C@H](O)[C@H]1O [salicin],EC50,hTAS2R16 (ssr3-hTAS2R16) [1],1360 µM
same,EC50,hTAS2R16 (ssr3-hTAS2R16) [2],1250 µM
same,EC50,hTAS2R16 (ssr3-hTAS2R16) [3],> 30000 µM
same,EC50,hTAS2R16 (ssr3-hTAS2R16) [4],550 µM
same,EC50,hTAS2R16 (ssr3-hTAS2R16) [5],> 30000 µM
same,EC50,hTAS2R16 (ssr3-hTAS2R16) [6],500 µM
same,EC50,hTAS2R16 (ssr3-hTAS2R16) [7],220 µM
same,EC50,hTAS2R16 (ssr3-hTAS2R16) [8],220 µM
